Test results reported in US20100249402A1, “NOVEL BENZAMIDINE DERIVATIVES, PROCESS FOR THE PREPARATION THEREOF AND PHARMACEUTICAL COMPOSITION FOR PREVENTING OR TREATING OSTEPOROSIS COMPRISING THE SAME” (DONG WHA PHARMACEUTICAL CO. LTD., priority 2007, published 2010).
Where two headings read alike, the source gives them in different places.

How the values were obtained:
HOS = assay: Cytotoxicity test (MTT), HOS; type: cell-based; conditions: 10^−6 M, cultured for 72 hrs, in comparison with the control group
Method: (§1) The cytotoxic effect of the benzamidine derivative of the present invention was evaluated by carrying out the experiment described below.
(§2) The test substance was diluted in an appropriate solvent at a concentration of 10^−2 M. This substance was diluted in an appropriate culture medium for the cells used in the cytotoxicity test to a concentration of 10^−6M, and loaded into a 96-well plate in 100 μl per well. The cell lines to be used in the cytotoxicity test were plated on a 96-well plate in a dose of 1.0×10^4 cell/100 μl per well, and cultured for 72 hrs. 25 μl of MTT[3-(4,5-dimethyl-2-thiazolyl)-2,5-diphenyl-2H-tetrazolium bromide] dissolved in PBS (2 mg/mL) were added before 4 hrs of the end of culture. After completion of the reaction, the plates were centrifuged, the medium was discarded and 100 μl of DMSO was added to dissolve formazan. Finally, the absorbance of the developed plates was measured at 540 nm. The survival rates of the cells were expressed as % concentration values in comparison with the control group.

calvaria = assay: Cytotoxicity test (MTT), calvaria; type: cell-based; conditions: 10^−6 M, cultured for 72 hrs, in comparison with the control group
Method: as §1, §2

MC3T3-E1 = assay: Cytotoxicity test (MTT), MC3T3-E1; type: cell-based; conditions: 10^−6 M, cultured for 72 hrs, in comparison with the control group
Method: as §1, §2

[1] = system: osteoclast differentiation; assay: Inhibitory effects on osteoclast differentiation (bone marrow cell/osteoblast co-culture, TRAP staining); type: cell-based, mice; conditions: Mus musculus, Osteoclast, 168 h, read-out: Inhibition of osteoclast differentiation (%)
Method: The effect of the benzamidine derivative of the present invention on osteoclast formation and differentiation process was evaluated via co-culture with an osteoblast.
Tibia was aseptically ectomized from 6 to 8-week-old male ddY mice to harvest bone marrow cells by using a syringe (21G, Korea Green Cross). The bone marrow cells were suspended in 5 mL of an α-MEM medium (Gibco BRL Co., supplemented with sodium bicarbonate (2.0 g/L), streptomycin (100 mg/L) and penicillin ([…]), filtered and then sterilized). The harvested cells were centrifuged at 600×g for 5 minutes to collect the whole quantity. To remove the red blood cells in the bone marrow cells, 3 mL of Tris HCl (0.83% NH4Cl, pH 7.5) was added and well mixed. After centrifugation, the numbers of the eukaryotic cells in the harvested bone marrow cells were counted, and then immediately used for a co-culture system.
The progenitor bone and the parietal bone were aseptically ectomized from 1 to 2-day-old neonatal ICR mice, washed with a phosphate butter solution (PBS), and treated with a mixed enzyme solution (0.2% collagenase and 0.1% dispase) six to seven times (10, 10, 10, 20, 20 and 20 min), and then 3 to 6 groups of the cells, in which a large volume of cells having osteoblastic characteristics were contained, were intensively collected, and washed with medium (serum-free α-MEM). The washed cells were cultured in the α-MEM medium containing 10% FBS for 2 to 3 days. After sub-culturing, the collected cells were used for this experiment, and diluted to a concentration of 1×10^6 cells/mL for storage at −70° C.
The benzamidine derivative of the present invention was dissolved in a sterile distilled water or ethanol to be diluted to a desired concentration. The final volume of the sample added to the cell culture medium was set at a ratio of 1:1000.
The bone marrow cells prepared in the above 1-1 and the osteoblast were co-cultured. Both the bone marrow cells (25,000 cells/cm^2) and the osteoblast (10,000 cells/cm^2) were plated in a 96-well plate using α-MEM medium containing FBS, and then cultured with the samples to be tested for 7 days. Differentiation factors, such as dexamethasone (10^−7 M) and vitamin D (10^−8 M), were also co-added to the medium from the first day of cultivation. The medium was changed with a fresh media containing a mixture of the samples and the differentiation factors every 2 to 3 days.
TRAP was used as a marker to measure the matured osteoclast in consideration of its characteristics showing a positive reaction to a TRAP staining solution.
The TRAP staining solution was prepared in such the manner that 5 mg of naphthol AS-MS phosphate (sigma N-4875) as a substrate and 25 mg of a coloring agent (Fast Red Violet LB salt) were dissolved in N,N-dimethylformamide (about 0.5 mL). 50 ml of a 0.1 N […] buffer solution containing 50 mM tartaric acid (pH 5.0) was added thereto, and the mixture was stored in a refrigerator prior to use as a staining solution.
After culturing the cells for 7 days, the medium was removed from the wells, the cells were once washed with PBS, and then fixed with PBS containing 10% formalin for 2 to 5 min. The cells were fixed again in a mixed solution of ethanol and acetone (1/1) for about 1 min, and dried off. The cells were further treated by the TRAP staining solution for 15 minutes, and washed with water and dried off. The osteoclasts with 3 or more nuclei showing a TRAP-positive reaction were counted under a microscopic examination. Each of tests was confirmed at least three times. The inhibitory effect on osteoclast differentiation of each experimental group, relative to negative controls, was expressed as a percentage (%).

[2] = 1 μm, 7 days co-culture, TRAP-positive osteoclasts with 3 or more nuclei, relative to negative controls

| SMILES | Cell survival rate (HOS) [%] | Cell survival rate (calvaria) [%] | Cell survival rate (MC3T3-E1) [%] | inhibition at 1 µM [1, 2] [%] | inhibition at 1 µM [1] [%] |
| --- | --- | --- | --- | --- | --- |
| CCCCNCc1sc(C)nc1-c1ccc(OCCCCCOc2ccc(C(=N)NO)cc2)cc1 [Example 13, N-hydroxy-4-{5-[4-(5-butylaminomethyl-2-methyl-thiazol-4-yl)-phenoxy]-pentyloxy}-benzamidine] | 106 | 96 | 93 | 100 | – |
| Cc1nc(-c2ccc(OCCCCCOc3ccc(C(=N)NO)cc3)cc2)c(N)s1 [Example 46, N-hydroxy-4-{5-[4-(5-amino-2-methyl-thiazol-4-yl)-phenoxy]-pentyloxy}-benzamidine] | 106 | 95 | 90 | 88 | – |
| CN1CCN(c2sc(N3CCOCC3)nc2-c2ccc(OCCCCCOc3ccc(C(=N)NO)cc3)cc2)CC1 [Example 4, N-hydroxy-4-(5-{4-[5-(4-methyl-piperazin-1-yl)-2-morpholin-4-yl-thiazol-4-yl]-phenoxy}-pentyloxy)-benzamidine] | 104 | 93 | 89 | – | 100 |
| COCCN(CCOC)Cc1sc(N(C)CCN2CCOCC2)nc1-c1ccc(OCCCCCOc2ccc(C(=N)NO)cc2)cc1 [Example 30, N-hydroxy-4-[5-(4-{5-{[bis-(2-methoxy-ethyl)-amino]-methyl}-2-[methyl-(2-morpholin-4-yl-ethyl)-amino]-thiazol-4-yl}-phenoxy)-pentyloxy]-benzamidine] | 107 | 103 | 105 | – | 93 |
| CN(Cc1ccncc1)c1nc(-c2ccc(OCCCCCOc3ccc(C(=N)NO)cc3)cc2)c(CN2CCOCC2)s1 [Example 24, N-hydroxy-4-(5-{4-[2-(methyl-pyridin-4-ylmethyl-amino)-5-morpholin-4-ylmethyl-thiazol-4-yl]-phenoxy}-pentyloxy)-benzamidine] | 112 | 95 | 86 | – | 100 |
| Cc1nc(-c2ccc(OCCCCCOc3ccc(C(=N)NO)cc3)cc2)c(CNCCN2CCOCC2)s1 [Example 17, N-hydroxy-4-[5-(4-{2-methyl-5-[(2-morpholin-4-yl-ethylamino)-methyl]-thiazol-4-yl}-phenoxy)-pentyloxy]-benzamidine] | 99 | 93 | 103 | – | 100 |
| Cc1nc(-c2ccc(OCCCCCOc3ccc(C(=N)NO)cc3)cc2)c(NC(=O)c2ccncc2)s1 [Example 38, N-hydroxy-4-[5-(4-{2-methyl-5-[(pyridine-4-carbonyl)-amino]-thiazol-4-yl}-phenoxy)-pentyloxy]-benzamidine] | 117.6 | 94.6 | 100.0 | 78.6 | – |
| CNc1sc(C)nc1-c1ccc(OCCCCCOc2ccc(C(=N)NO)cc2)cc1 [Example 37, N-hydroxy-4-{5-[4-(2-methyl-5-methylamino-thiazol-4-yl)-phenoxy]-pentyloxy}-benzamidine] | 105.3 | 92.5 | 94.3 | 83.3 | – |
| Cc1nc(-c2ccc(OCCCCCOc3ccc(C(=N)NO)cc3)cc2)c(CN2CCSCC2)s1 [Example 10, N-hydroxy-4-{5-[4-(2-methyl-5-thiomorpholin-4-ylmethyl-thiazol-4-yl)-phenoxy]-pentyloxy}-benzamidine] | 101 | 94.5 | 93.4 | – | 92.9 |
| Cc1nc(-c2ccc(OCCCCCOc3ccc(C(=N)NO)cc3)cc2)c(-n2cncn2)s1 [Example 44, N-hydroxy-4-{5-[4-(2-methyl-5-[1,2,4]triazol-1-yl-thiazol-4-yl)-phenoxy]-pentyloxy}-benzamidine] | – | – | – | 68 | – |
| N=C(NO)c1ccc(OCCCCCOc2ccc(-c3nc(-c4ccccc4)sc3N)cc2)cc1 [Example 45, N-hydroxy-4-{5-[4-(5-amino-2-phenyl-thiazol-4-yl)-phenoxy]-pentyloxy}-benzamidine] | 104 | 83 | 81 | 91 | – |
| CNc1nc(-c2ccc(OCCCCCOc3ccc(C(=N)NO)cc3)cc2)c(CN2CCOCC2)s1 [Example 50, N-hydroxy-4-{5-[4-(2-methylamino-5-morpholin-4-ylmethyl-thiazol-4-yl)-phenoxy]-pentyloxy}-benzamidine] | 102 | 90 | 91 | 100 | – |
| CN(C)c1sc(-c2ccccc2)nc1-c1ccc(OCCCCCOc2ccc(C(=N)NO)cc2)cc1 [Example 42, N-hydroxy-4-{5-[4-(5-dimethylamino-2-phenyl-thiazol-4-yl)-phenoxy]-pentyloxy}-benzamidine] | 100 | 98 | 91 | 49 | – |
| CC(C)NCc1sc(N(C)CCN2CCOCC2)nc1-c1ccc(OCCCCCOc2ccc(C(=N)NO)cc2)cc1 [Example 32, N-hydroxy-4-[5-(4-{5-(isopropylamino-methyl)-2-[methyl-(2-morpholin-4-yl-ethyl)-amino]-thiazol-4-yl}-phenoxy)-pentyloxy]-benzamidine] | 106 | 98 | 104 | 100 | – |
| N=C(NO)c1ccc(OCCCCCOc2ccc(-c3nc(-c4cccnc4)sc3N)cc2)cc1 [Example 47, N-hydroxy-4-{5-[4-(5-amino-2-pyridin-3-yl-thiazol-4-yl)-phenoxy]-pentyloxy}-benzamidine] | 112 | 99 | 97 | 86 | – |
| CN(Cc1ccccc1)c1nc(-c2ccc(OCCCCCOc3ccc(C(=N)NO)cc3)cc2)c(CN2CCOCC2)s1 [Example 27, N-hydroxy-4-(5-{4-[2-(benzyl-methyl-amino)-5-morpholin-4-ylmethyl-thiazol-4-yl]-phenoxy}-pentyloxy)-benzamidine] | 104 | 106 | 102 | 77 | – |
| CN(CCN1CCOCC1)c1nc(-c2ccc(OCCCCCOc3ccc(C(=N)NO)cc3)cc2)c(CN2CCOCC2)s1 [Example 28, N-hydroxy-4-[5-(4-{2-[methyl-(2-morpholin-4-yl-ethyl)-amino]-5-morpholin-4-ylmethyl-thiazol-4-yl}-phenoxy)-pentyloxy]-benzamidine] | 114 | 104 | 11 | 100 | – |
